Data published in patent US20260097111A1, “ETHER LIPIDS FOR HYPERACTIVATION OF MAMMALIAN DENDRITIC CELLS” (priority 2022, published 2026).
“Also recorded” adds a separate entry of the source.

Columns and labels:
[1] = system: human monocyte-derived dendritic cells (moDCs); experiment: IL-1β secretion by human moDCs treated with lipid and R848; assay type: cell-based; details: for hyperactivation of human dendritic cells: 41.25 μM lipid with R848 (Compound 1 also 20.6 μM); for IL-1β secretion / IL-1β secretion, dependence on the NLRP3 inflammasome: human moDCs; for IL-1β secretion, dependence on the NLRP3 inflammasome: R848 + lipid with or without MCC950, one day, FIG. 3B
Procedure: (§1) Human monocytes were isolated from Leukopaks purchased from Miltenyi using the StraightFrom Leukopak CD14 microbead kit (Miltenyi). Isolations were completed following manufacturer's instructions. Monocytes were then aliquoted and frozen in fetal bovine serum containing 10% dimethyl sulfoxide. For studies with monocyte-derived dendritic cell (moDC) cultures, monocytes were thawed and cultured in RPMI medium containing 10% FBS, 50 units/mL penicillin, […] streptomycin, 2 mM L-glutamine, 1 mM sodium pyruvate, […] beta-mercaptoethanol, 10 mM HEPES, and Gibco MEM non-essential amino acids (R10 media). To differentiate monocytes into moDCs, recombinant human GM-CSF (50 ng/mL) and IL-4 (25 ng/mL) were added to R10 media. Cells were cultured for 6 days with GM-CSF and IL-4, with an additional cell feeding with R10 containing GM-CSF and IL-4 on day 3.
Six days after differentiation, moDC were collected and counted. Cells were plated into 96-well flat-bottom plates at 1×10^5 cells/well. Cells were treated with or without 1 μg/mL R848 (final) and with or without a hyperactivating lipid (or vehicle control). In some experiments, MCC950, an inhibitor of the NLRP3 inflammasome, was added at a final concentration of 10 uM. In some experiments, nigericin, which causes NLRP3 inflammasome activation and subsequent pyroptosis, was used as a positive control at 20 uM. Cells and stimuli totaled a final volume of […].
Lipid stocks were then further diluted in PBS to treat cells.
After an overnight incubation, cells and culture supernatant were used for downstream readouts. One hundred and fifty microliters of cell supernatant were collected. Viability was measured using the CellTiter-Glo assay (Promega) which measures ATP content from cells. Fifty microliters of CellTiter-Glo reagent were added to 50 μL of cells. Luminescence was quantified on a SpectraMax m5e plate reader using an integration time of 500 milliseconds. Viability data were set relative to control conditions where cells were treated with only R848. To measure IL-1β secretion, the human IL-1β Lumit kit (Promega) was used to assay cell culture supernatant. Culture supernatant samples were incubated with enzyme-linked antibodies in a 384-well plate for 1 hour before addition of luminescent substrate. Samples were measured for luminescence with an integration time of 500 milliseconds. IL-1β concentrations of samples was determined by interpolation from a standard curve using 4-parameter logistic regression analysis. Studies were performed on three different human donor samples, and each biological condition was tested in triplicate. Graphed data represent means from each donor.
as §1, with “Human moDC Production. Human” for “Human”, “(Miltenyi) according to the” for “(Miltenyi). Isolations were completed following”, “To differentiate” for “For studies with”, “pyruvate, and” for “pyruvate,”, “beta-mercaptoethanol” for “beta-mercaptoethanol, 10 mM HEPES, and Gibco MEM non-essential amino acids”
Hyperactivating Lipid Formulation—Compound 10. Lipid stocks were formulated at 200 μg/mL lipid in 5% Kolliphor P407 (KP407) in PBS.

human moDCs = experiment: IL-6 secretion by human moDCs; assay type: cell-based; details: human moDCs, 41.25 μM lipid with R848, compared with R848 + vehicle; FIG. 16
murine FLT3L-DCs = experiment: Murine bone marrow-derived FLT3L-DCs hyperactivation; assay type: cell-based, mice; details: FLT3L DCs; for IL-1β secretion: 1 μg/mL R848 2-3 hours alone or then 41 uM lipid, 48 hours, FIG. 4A; for viability: R848 then 41 uM lipid, FIG. 4B
Procedure: Murine bone marrow-derived FLT3L-DCs generation. Leg femur and tibia were removed from mice, cut with scissors, and flushed into sterile tubes. Bone marrow suspension was treated with ACK for 1 minute, then passed through a 40 um cell strainer. Cells were counted and resuspended in media consisting of complete IMDM containing 10% FBS, penicillin and streptomycin, and supplements of L-glutamine and sodium pyruvate (I10). […] For each experiment, 5 mice are used to collect BM and to generate DCs.
Lipid preparation. […] Lipid stocks were then further diluted in PBS to treat cells.
Murine bone marrow-derived FLT3L-DCs hyperactivation. BMDCs were harvested on day 8 post differentiation, washed with PBS, and re-plated in FLT3L-containing I10 at a concentration of 1×10^5 cells/mL. Cells were primed with or without 1 μg/mL R848 (final) then treated with or without a hyperactivating lipid (or vehicle control). Forty-eight hours post stimulation, supernatants were collected for cytokine measurement. Viability was measured using the CellTiter-Glo assay (Promega) which measures ATP content from cells. Fifty microliters of CellTiter-Glo reagent were added to 50 μL of cells. Luminescence was quantified on a SpectraMax m5e plate reader using an integration time of 500 milliseconds. Viability data were set relative to control conditions where cells were treated with R848. IL-1β and TNFα cytokine were measured using sandwich ELISAs (Invitrogen).

[2] = 41.25 μM lipid with R848, FIG. 17
[3] = 41.3 uM lipid with R848, FIG. 11
[4] = 41.3 uM lipid with R848 and MCC950, FIG. 11
[5] = 24 hours, lipid in 4% KP407 with R848, FIG. 2B
[6] = 20.6 uM lipid with R848 and 10 uM MCC950, FIG. 14
[7] = 20.6 uM lipid with R848 vs vehicle, FIG. 14

Compound | hyperactivation of human dendritic cells [1] | IL-1β secretion [1, 2] | IL-1β secretion [1, 3] | IL-1β secretion [1, 5] | IL-1β secretion, dependence on the NLRP3 inflammasome [1] | further results
CCCCCCCCCCCCCCCCCCCCCCOC[C@H](COP(=O)(O)O)OC(=O)NC [Compound 6, (R)-1-(docosyloxy)-3-(phosphonooxy)propan-2-yl methylcarbamate] | did not | induced minimal IL-1β secretion | – | – | – | IL-6 secretion (human moDCs): IL-6 was secreted at similar levels
CCCCCCCCCCCCCCCCCCCCCCOC[C@H](CO)OC(N)=O [Compound 7, (S)-1-(docosyloxy)-3-hydroxypropan-2-yl carbamate] | – | – | induced secretion of IL-1β | produced significantly more IL-1β | depend on the NLRP3 inflammasome for IL-1β secretion | hyperactivation of moDC (IL-1β secretion with maintained viability) ([1]; 41.3 uM lipid with R848): hyperactivating lipids; IL-1β secretion [1, 4]: significantly reduced; IL-1β secretion (murine FLT3L-DCs): induced the lowest levels of IL-1β secretion; viability (murine FLT3L-DCs): viability was not compromised
CCCCCCCCCCCCCCCCCCCCCCOC[C@H](CO)OC(=O)NC [Compound 8, (S)-1-(docosyloxy)-3-hydroxypropan-2-yl methylcarbamate] | – | – | induced secretion of IL-1β | produced significantly more IL-1β | depend on the NLRP3 inflammasome for IL-1β secretion | hyperactivation of moDC (IL-1β secretion with maintained viability) ([1]; 41.3 uM lipid with R848): hyperactivating lipids; IL-1β secretion [1, 4]: significantly reduced; IL-1β secretion (murine FLT3L-DCs): induced the lowest levels of IL-1β secretion; viability (murine FLT3L-DCs): viability was not compromised
CCCCCCCCCCCCCCCCCCCCCCOC[C@@H](O)CO [Compound 9, (S)-3-(docosyloxy)propane-1,2-diol] | – | – | robustly induced IL-113 secretion | produced significantly more IL-1β | depend on the NLRP3 inflammasome for IL-1β secretion | IL-1β secretion ([1]; 41.25 μM lipid with R848 vs vehicle control, FIG. 8): produced significantly more IL-1β
CCCCCCCCCCCCCCCCCCOC[C@H](CO)OC(=O)NC [Compound 11, (S)-1-hydroxy-3-(octadecyloxy)propan-2-yl methylcarbamate] | hyperactivating lipids; also recorded: hyperactivated dendritic cells | significantly increased IL-1β secretion | – | – | – | hyperactivation of moDC (IL-1β secretion with maintained viability) ([1]; 20.6 uM lipid with R848): hyperactivating lipids; IL-1β secretion [1, 6]: inhibited; IL-1β secretion [1, 7]: significantly more IL-1β was detected
CCCCCCCCCCCCCCCCCCOC[C@@H](O)CO [Compound 12, (S)-3-(octadecyloxy)propane-1,2-diol] | hyperactivating lipids; also recorded: hyperactivated dendritic cells | significantly increased IL-1β secretion | – | – | – | hyperactivation of moDC (IL-1β secretion with maintained viability) ([1]; 20.6 uM lipid with R848): hyperactivating lipids; IL-1β secretion [1, 6]: inhibited; IL-1β secretion [1, 7]: significantly more IL-1β was detected
CCCCCCCCCCCCCCCCCCOC[C@H](COP(=O)(O)O)OC(=O)NC [Compound 13, (R)-1-(octadecyloxy)-3-(phosphonooxy)propan-2-yl methylcarbamate] | hyperactivating lipids; also recorded: hyperactivated dendritic cells | significantly increased IL-1β secretion | – | – | – | –
CCCCCCCCCCCCCCCCCCCCCCOC[C@H](CO)OC(=O)N(C)C [Compound 14, (S)-1-(docosyloxy)-3-hydroxypropan-2-yl dimethylcarbamate] | did not | induced minimal IL-1β secretion | – | – | – | –
(R)-2-((dimethylcarbamoyl)oxy)-3-ethoxypropyl (2-(trimethylammonio)ethyl) phosphate-icosane (1/1) [Compound 16] | hyperactivating lipids; also recorded: hyperactivated dendritic cells | significantly increased IL-1β secretion | – | – | – | –
(R)-3-(docosyloxy)-2-((methylcarbamoyl)oxy) propyl (2-(trimethylammonio) ethyl) phosphate [Compound 4] | hyperactivating lipids; also recorded: hyperactivated dendritic cells | significantly increased IL-1β secretion | – | – | – | –
